According to a melting point compilation (Tetko et al.; mined from patent text by program, amines drawn as free bases though some values may be those of a salt):

| SMILES | melting point [°C] |
| --- | --- |
| O=C(Nc1cc(C(F)(F)F)cc(C(F)(F)F)c1)c1ccccc1SSc1ccccc1C(=O)Nc1cc(C(F)(F)F)cc(C(F)(F)F)c1 | 213 to 214 |
| CCCC(=O)c1cnc2c(C)cccc2c1Nc1ccccc1Cl | 130 to 131 |
| OC(c1ccc(F)cc1)(c1ncc[nH]1)c1ccc(Cl)cc1Cl (centres undefined) | 194 |
| COc1ccc2c(=O)c(-c3ccccc3)c(SCc3ccccc3)oc2c1 | 153 to 154 |
| O=C(NCc1ccccn1)Nc1cc(N2CC(c3cccc(F)c3)CC2=O)ccn1 (centres undefined) | 188 to 189 |
| Nc1nc2ccccc2c2c1nc1n2C(COc2ccccc2)COC1 (centres undefined) | 189 to 195 |
| Cn1c(-c2ccc3ccccc3c2)nnc1S(C)=O (centres undefined) | 224 to 226 |
| c1ccc(COc2ccc3[nH]c(-c4ccccc4)cc3c2)cc1 | 168 to 170 |
| COc1ccc(CN2CCN(C(=S)C3(C)CCc4c(C)c(O)c(C)c(C)c4O3)CC2)c(OC)c1OC (centres undefined) | 124 to 125 |
| COc1ccnc(CCc2nc3cc(-c4ccc(NS(=O)(=O)c5ccccc5)cc4)cnc3[nH]2)c1 | 251 to 253 |
| Nc1c(F)c(N2CCC(C(N)c3cccnc3)C2)c(F)c2c1c(=O)c(C(=O)O)cn2C1CC1F (centres undefined) | 123 to 126 |
| CC(O)c1ccc(Cc2cn(-c3ccc(F)cc3)c3ncccc3c2=O)cc1 (centres undefined) | 197 to 198 |
| Cc1c(Cl)c(Oc2c(Cl)cc(C(F)(F)F)cc2Cl)nn1C(=O)NCCCl | 141 to 143 |
| CC1CN(c2ccc(NC=C3C(=O)NC(=O)c4ccc(Br)cc43)cc2)CC(C)N1 (centres undefined) | 229 to 230 |
| CC(C)(C)c1ccc(C(=O)NNS(=O)(=O)c2ccccc2)cc1 | 197 to 199 |
| COc1ccc(C(=O)Oc2ccc(S(N)(=O)=O)cc2)cc1C12CC3CC(CC(C3)C1)C2 | 223 to 224 |
| O=c1c2cc(Cl)ccc2nc2n1CS(=O)(=O)N2 | > 300 |
| Nc1cc(C(=O)O)cc(OCc2ccccc2)c1Cc1ccccc1 | 208 to 210 |
| COCCOc1cc(/C=C/C(=O)NS(=O)(=O)CCC(C)C)n(Cc2ccc(C(F)(F)F)cc2Cl)n1 | 114 to 116 |
| O=C1CCCc2sc(CCN3CCC(c4coc5cc(F)ccc45)CC3)cc2N1 | 176 to 178 |
| O=C1CC(=O)N(c2ccccc2)c2ccccc2N1NCCC1C2CC3CC(C2)CC1C3 (centres undefined) | 196 to 197 |
| Cc1cc(NC(=O)c2cccc(CCc3cc(Nc4ccccc4)n[nH]3)c2)ccc1C(C)C | 150 to 151 |
| CN(C)CCCn1c2c(c3cc(Br)ccc31)CCS(=O)(=O)CCC2 | 135 to 137 |
| Cc1nccc(C(N)=O)c1[N+](=O)[O-] | 203 to 204 |
| CC(C)(C)C(=O)OCc1nc(-c2ccc3c(c2)Nc2ccccc2S3)cs1 | 120 to 122 |

| SMILES | melting point [°C] |
| --- | --- |
| COc1c(Br)c(-c2ccc(C(C)(C)C)s2)cc2oc(=O)c(C)c(C)c12 | 170 |
| CCCC/C(=C\C=C\C(=O)O)c1ccc(OC)cc1 | 138 to 140 |
| CC(C)=C1C(=O)N(c2ccc(O)cc2)C(=O)/C1=C(\C)c1c(C)n(C)c2ccccc12 | 231 to 233 |
| Cc1ccc(-c2cc(O)c3[nH]c(=O)ccc3c2)c(C)n1 | 276 to 277 |
| CCc1csc(CCc2ccc(NC(=O)/C=C/c3cnn(C)c3-c3ccc(F)cc3)cc2)n1 | 200 to 201 |
| Cc1cn(-c2ccc(Br)cc2C#N)cn1 | 166 |
| CCCCC(=O)Nc1ccccc1C(N)=O | 119 to 120 |
| C[C@H](Nc1ncnc2[nH]cnc12)c1oc2ccc(F)cc2c(=O)c1-c1ccccc1 | 196 to 198 |
| COc1ccccc1Nc1ncc2cc(-c3c(Cl)cccc3Cl)c(=O)n(C)c2n1 | 200 to 201 |
| Cc1nnc2n1-c1ccc(Cl)cc1N(c1ccccc1)C(=O)C2 | 297 to 298 |
| CC(C)(C)OC(=O)N1CCC(O)(Cc2ccc3ccccc3n2)CC1 | 119 to 121 |
| O=C(O)c1ccccc1C(=O)c1ccncc1 | 191 to 193 |
| CCCN(CCC(O)c1csc2ccc(F)cc12)C1COc2c(F)ccc(C(N)=O)c2C1 (centres undefined) | 117 |
| CCCc1c(Cc2ccc(-c3ccccc3C#N)cc2)c(O)nc2ccnn12 | 236 |
| CCN(Cc1cc(Cl)ccc1OCC1CC1)c1ccc(C(=O)NS(=O)(=O)C(F)(F)F)nn1 | 150 |
| CC1(C)Oc2ccc(C#N)cc2[C@@H](NC(=O)Nc2cccc(-c3nnn[nH]3)c2)[C@@H]1O | 204 to 208 |
| O=C(O)CCCCCCCCCCOc1cc(OCCCCCCCCCCC(=O)O)cc(C(=O)N(CC(=O)O)CC(=O)O)c1 | 134 to 140 |
| Cc1c(-c2nc(-c3c(F)cccc3Cl)nn2C)csc1Br | 133 to 134 |
| Brc1ccccc1C=Cc1ccco1 | 108 to 110 |
| COc1ccc2ccc(O)c(N=O)c2c1 | 122 to 124 |
| O=C(Nc1nc(CN2CCC(c3c[nH]c4ccccc34)CC2)cs1)C1CC1 | 120 to 132 |
| Cc1nc2ncnn2c2c1CCN2CC(C)C | 143 to 145 |
| OC(c1cncs1)(c1cncs1)C(F)(F)F | 109 to 110 |
| O=C(O)CNC(=O)c1nc2ccc(NCCCN3CCC(OC(c4ccccc4)c4ccccc4)CC3)nn2n1 | 256 to 258 |
| Cc1ccccc1C(=O)NC(n1cncn1)C(Cl)(Cl)CCl (centres undefined) | 133 to 137 |

| SMILES | melting point [°C] |
| --- | --- |
| C=CCn1c(C)c(C)c2cnnc(OCc3cccc(F)c3)c21 | 85 to 86 |
| CC(=O)OCSc1c(F)cc(-c2c(-c3ccccc3)noc2C)cc1F | 130 |
| CC(=O)Nc1ncc(C23CCCN(CC2)C3)o1 (centres undefined) | 142 to 143 |
| COC(=O)C=CC(C)C1=CCC2C3CC=C4CC(OC(C)=O)CCC4(C)C3CCC12C (centres undefined) | 121 to 122 |
| COC1(c2cccc(OCc3ccc(-n4ccnc4)cc3)c2)CCOCC1 | 129 to 130 |
| COc1ccc(CN2CC=C(/C=C/c3ccc(C#N)cc3)CC2)cc1 | 120 to 121 |
| CSC(=O)C(=O)c1cc(NC=O)ccn1 | 145 to 148 |
| CCN(CC)CC/C=C/c1ccc2c(Nc3ccc(Sc4nccn4C)c(Cl)c3)c(C#N)cnc2c1 | 200 to 210 |
| CCOc1ccc(C=NO)cc1 | 81 to 86 |
| COc1ccc(-c2cc3ccccc3[nH]2)c(C)c1 | 131 |
| CSc1ccc(CSc2cccc(C(=O)Nc3ccc(C#N)cn3)c2)cc1 | 161 to 162 |
| Cc1cccc(COc2cccc(OCc3ccc4cc(F)c(F)cc4n3)c2)c1OCC(=O)O | 94 to 95 |
| c1cc(Nc2csc3cnccc23)ccn1 | 236 to 238 |
| O=C1N(Cc2nsc(Cl)n2)c2cccc(Cl)c2C12COc1cc3c(cc12)OCO3 (centres undefined) | 174 to 176 |
| Cc1ccc(CNC(=O)c2sc(N3CCN(Cc4ccccc4)C3=O)nc2C)o1 | 138 to 139 |
| CCNc1nc(C)c(-c2ccncc2)s1 | 129 to 131 |
| N#Cc1ccc(O[C@@H]2c3ncccc3C[C@H]2N2CCC[C@@H](N)C2)c(Cl)c1 | 180 |
| CCC(C)C(=O)NC1CCC(CCN2CCN(c3nccc4c3OCC4)CC2)CC1 (racemic) | 196 |
| CC1(C)CC2(NC(=O)NC2=O)c2ccccc2O1 (centres undefined) | 233 to 235 |
| CNC(=O)c1cccc(NC(=O)CCc2ccccc2)c1 | 142 to 143 |
| CCOC(=O)C(=CNc1csnn1)C(=O)c1cc(F)c(Cl)nc1Cl | 110 to 114 |
| CCCc1ncc(CN2C(=O)c3ccccc3C2=O)s1 | 72 |
| CC(=O)Oc1cc(Br)cc2c1OC(C)(C)C2 | 76 |
| CCCCC(CC)c1nc2cc(O)c(C#N)c(C)n2n1 (centres undefined) | 253 to 254 |
| CON=C(C)c1ccc2c(c1)ncn2-c1cccc(-c2nccs2)c1 | 157 to 159 |

| SMILES | melting point [°C] |
| --- | --- |
| C=CCOC(=O)CSc1cccc(NC(=O)NCC(=O)N(CC(=O)OC(C)(C)C)c2ccccc2C(=O)c2ccccc2)c1 | 155 to 157 |
| CCCc1ccc2oc(Cc3ccc(O)cc3)c(C)c2c1O | 117 to 120 |
| CCN(CC)C(=O)NC1CC2c3cccc4[nH]cc(c34)CC2N(C)C1 (centres undefined) | 171 to 173 |
| O=C(Nc1ccccc1F)Nc1cc(Cl)ccc1C(=O)O | 195 to 197 |
| CN1c2ccccc2CC1COc1ccc(CC2SC(=O)N(C(c3ccccc3)(c3ccccc3)c3ccccc3)C2=O)cc1 (centres undefined) | 62.5 to 65.5 |
| CCNC(=O)Nc1nccc(-c2ccncc2)n1 | 204 to 207 |
| CCCCCCC(C)N(Cc1ccc(CC(C)(C)C)cc1)C(Nc1cc(C(C)(C)C)c(O)c(C(C)(C)C)c1)=C1C(=O)COC1=O (centres undefined) | 158 to 160 |
| O=C(Nc1ccccc1)c1ccccc1Nc1ncnc2[nH]cc(C(=O)c3ccccc3)c12 | > 300 |
| CC(C)(CO)Cc1ccc2cc(CC(C)(C)CO)ccc2c1 | 162 to 165 |
| CC(CC1=C(O)C(=O)c2ccccc2C1=O)C(F)(F)F (centres undefined) | 168 |
| CCOC(=O)c1ccc(C(=O)Nc2ccc3c(c2)CCC(C)(C)C(=O)N3C)cc1 | 183 to 184 |
| CC(C)(C)OC(=O)c1cnc(F)cn1 | 26.5 to 28.1 |
| O=C1CCC(c2ccc(O)cc2)=NN1c1ccccn1 | > 220 |
| CCCN(C)C1CCc2c(cccc2NC(C)=O)C1 (centres undefined) | 78 |
| CC1Cc2cc(C(O)C(C)N3CCC(n4c(=O)[nH]c5ccccc54)CC3)ccc2S1 (centres undefined) | 220 to 222 |
| O=C(Cn1cc(-c2ccc3nnn(Cc4ccc5ncccc5c4)c3n2)cn1)N1CCCC1 | 136 to 138 |
| O=C(NCc1ccc(Cl)cc1)n1cc(Br)cnc1=O | 158 to 160 |
| CC1=NC(NCc2ccc(O)c(OC(F)F)c2)C(C)(Cl)C=N1 (centres undefined) | 167 to 168 |
| O=C(O)Cc1ccc(Oc2ccc(I)cc2)cc1 | 148 to 150 |
| CCc1cc(N(C=O)c2ccccc2)cc(CC)c1N(C(N)=S)C(C)(C)C | 160 to 162 |
| O=Cc1coc2cc(OCCCN3CCC(c4noc5cc(F)ccc45)CC3)ccc2c1=O | 163 to 165 |
| CC(=O)N(C)C(CCl)C(=O)O (centres undefined) | 104 |
| O=CN1CCN(CCSc2nc3ccccc3[nH]2)CC1 | 146 to 148 |
| C=CCOc1ccc(C(=O)c2ccc(OCC=C)cc2O)c(O)c1 | 95 |
